Reference: patent publication US20190031599A1, “INDANE DERIVATIVES AS MGLUR7 MODULATORS” (Takeda Pharmaceutical Company Limited, priority 2016, published 2019)
Counter-ions that a name gives are not always drawn.

Molecular target: T1, human mGluR7 (Homo sapiens, UniProt Q14831)
T1 construct: expressed in transfected cells
Test: mGluR7 assay: CRE-directed luciferase reporter gene assay, reduction of forskolin stimulated cAMP production
Assay type: cell-based
Conditions: stable CHO cell line expressing the CRE-luc reporter and human mGluR7 genes; decrease of forskolin stimulated luminescence; 10-point concentration-response, duplicate wells
How it was run: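 Stable CHO cell line co-expressing human mGluR7 and a CRE-luciferase reporter; compounds preincubated 15 min at 37 °C, then forskolin added and incubated 5 h at 37 °C. 10-point half-log concentration-response in duplicate, normalised to forskolin-alone (max) and forskolin plus tool mGluR7 agonist (min) controls.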

T1 sequence (Q14831 35-915): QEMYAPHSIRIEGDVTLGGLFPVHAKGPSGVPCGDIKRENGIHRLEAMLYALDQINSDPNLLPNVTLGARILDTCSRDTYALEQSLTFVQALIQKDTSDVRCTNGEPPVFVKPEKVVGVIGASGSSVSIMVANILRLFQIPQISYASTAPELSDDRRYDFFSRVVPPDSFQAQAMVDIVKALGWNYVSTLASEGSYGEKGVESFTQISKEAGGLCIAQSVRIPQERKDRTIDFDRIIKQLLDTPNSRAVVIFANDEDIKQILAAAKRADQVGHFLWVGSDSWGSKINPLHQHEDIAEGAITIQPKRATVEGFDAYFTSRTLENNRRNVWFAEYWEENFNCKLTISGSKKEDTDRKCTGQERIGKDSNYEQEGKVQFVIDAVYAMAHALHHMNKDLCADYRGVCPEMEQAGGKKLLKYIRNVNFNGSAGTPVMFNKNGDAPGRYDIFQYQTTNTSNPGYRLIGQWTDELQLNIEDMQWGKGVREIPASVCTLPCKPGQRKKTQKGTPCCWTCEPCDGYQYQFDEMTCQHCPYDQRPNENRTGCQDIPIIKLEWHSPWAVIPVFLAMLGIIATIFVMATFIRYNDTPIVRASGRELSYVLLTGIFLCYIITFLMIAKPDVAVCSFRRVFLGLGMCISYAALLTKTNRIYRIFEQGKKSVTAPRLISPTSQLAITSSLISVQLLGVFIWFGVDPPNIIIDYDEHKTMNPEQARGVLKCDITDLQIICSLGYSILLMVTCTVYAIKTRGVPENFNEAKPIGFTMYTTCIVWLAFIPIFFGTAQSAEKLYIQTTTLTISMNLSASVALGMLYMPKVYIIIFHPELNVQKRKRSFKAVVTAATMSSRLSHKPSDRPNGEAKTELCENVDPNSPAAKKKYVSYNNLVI

Compound | EC50 [nM]
CC1c2ccccc2CC1NC(=O)[C@@H](NC(=O)OC(C)(C)C)c1ccc(F)cc1 (stereo in doubt) [Example 71, tert-butyl N—[(S)-(4-fluorophenyl)[(trans)-(1-methyl-2,3-dihydro-1H-inden-2-yl)carbamoyl]methyl]carbamate] | 2
COC1c2ccccc2CC1NC(=O)[C@@H](NS(C)(=O)=O)c1ccc(F)cc1 (stereo in doubt) [Example 72, (2S)-2-(4-fluorophenyl)-2-methanesulphonamido-N-(trans)-(1-methoxy-2,3-dihydro-1H-inden-2-yl)acetamide] | 11
CC1c2ccccc2CC1NC(=O)[C@@H](NS(C)(=O)=O)c1ccc(F)cc1 (stereo in doubt) [Example 85, (2S)-2-(4-fluorophenyl)-2-methanesulfonamido-N-((trans)-1-methyl-2,3-dihydro-1H-inden-2-yl)acetamide] | 26
C[C@H](C(=O)N[C@@H]1Cc2ccccc2[C@H]1NC(=O)OC(C)(C)C)c1ccccc1 [Example 18, tert-butyl N-[(1R,2R)-2-[(2S)-2-phenylpropanamido]-2,3-dihydro-1H-inden-1-yl]carbamate] | 150
CO[C@H](C(=O)N[C@H]1Cc2ccccc2[C@@H]1N)c1ccccc1 [Example 19, (2S)—N-[(1S,2S)-1-amino-2,3-dihydro-1H-inden-2-yl]-2-methoxy-2-phenylacetamide hydrochloride] | 973
C[C@H](C(=O)N[C@H]1Cc2ccccc2[C@@H]1NC(=O)OC(C)(C)C)c1ccc(F)cc1 [Example 21, tert-butyl N-[(1S,2S)-2-[(2S)-2-(4-fluorophenyl)propanamido]-2,3-dihydro-1H-inden-1-yl]carbamate] | 28
CN[C@H]1c2ccccc2C[C@@H]1NC(=O)[C@@H](C)c1ccccc1 [Example 22, (2S)—N-[(1S,2S)-1-(methylamino)-2,3-dihydro-1H-inden-2-yl]-2-phenylpropanamide] | 70
C[C@H](C(=O)N[C@H]1Cc2ccccc2[C@@H]1N)c1ccc(F)cc1 [Example 24, (2S)—N-[(1S,2S)-1-amino-2,3-dihydro-1H-inden-2-yl]-2-(4-fluorophenyl)propanamide] | 66
CCC(C(=O)N[C@@H]1Cc2ccccc2[C@H]1NC(=O)OC(C)(C)C)c1ccc(F)cc1F (stereo partly drawn) [Example 41, tert-butyl N-[(1R,2R)-2-[2-(2,4-difluorophenyl)butanamido]-2,3-dihydro-1H-inden-1-yl]carbamate] | 216
CC[C@H](C(=O)N[C@@H]1Cc2ccccc2[C@H]1NC(=O)OC(C)(C)C)c1ccc(F)cc1 [Example 43, tert-butyl N-[(1R,2R)-2-[(2S)-2-(4-fluorophenyl)butanamido]-2,3-dihydro-1H-inden-1-yl]carbamate] | 130
C[C@H](C(=O)N[C@H]1Cc2ccccc2[C@@H]1NCC1CC1)c1ccc(F)cc1 [Example 47, (2S)—N-[(1S,2S)-1-[(cyclopropylmethyl)amino]-2,3-dihydro-1H-inden-2-yl]-2-(4-fluorophenyl)propanamide] | 21
CC[C@H](C(=O)N[C@H]1Cc2ccccc2[C@@H]1N)c1ccc(F)cc1 [Example 52, (2S)—N-[(1S,2S)-1-amino-2,3-dihydro-1H-inden-2-yl]-2-(4-fluorophenyl)butanamide] | 53
COc1ccc(C(C)C(=O)N[C@H]2Cc3ccccc3[C@@H]2N)cc1 (stereo partly drawn) [Example 57, N-[(1S,2S)-1-amino-2,3-dihydro-1H-inden-2-yl]-2-(4-methoxyphenyl)propanamide hydrochloride] | 2210
CC(C(=O)N[C@H]1Cc2ccccc2[C@@H]1N)c1ccc(C(F)(F)F)cc1 (stereo partly drawn) [Example 58, N-[(1S,2S)-1-amino-2,3-dihydro-1H-inden-2-yl]-2-[4-(trifluoromethyl)phenyl]propanamide hydrochloride] | 1780

Further molecules by falling EC50, results first:

EC50 [nM] | Compound
1200 | CC(=O)N[C@H]1c2ccccc2C[C@@H]1NC(=O)[C@@H](C)c1ccccc1 [Example 13, (2S)—N-[(1S,2S)-1-acetamido-2,3-dihydro-1H-inden-2-yl]-2-phenylpropanamide]
290 | C[C@H](C(=O)N[C@@H]1Cc2ccccc2[C@H]1N)c1ccccc1 [Example 12, (2S)—N-[(1R,2R)-1-amino-2,3-dihydro-1H-inden-2-yl]-2-phenylpropanamide]
233 | C[C@H](C(=O)N[C@@H]1Cc2ccccc2[C@H]1N)c1ccc(F)cc1F [Example 35, (2S)—N-[(1R,2R)-1-amino-2,3-dihydro-1H-inden-2-yl]-2-(2,4-difluorophenyl)propanamide]
225 | CO[C@H](C(=O)NC1Cc2ccccc2C1S(C)(=O)=O)c1ccccc1 (stereo in doubt) [Example 149, (2S)—N-(trans)-(1-methanesulfonyl-2,3-dihydro-1H-inden-2-yl)-2-methoxy-2-phenylacetamide]
195 | CCC(C(=O)N[C@@H]1Cc2ccccc2[C@H]1N)c1ccc(F)cc1F (stereo partly drawn) [Example 17, N-[(1R,2R)-1-amino-2,3-dihydro-1H-inden-2-yl]-2-(2,4-difluorophenyl)butanamide hydrochloride]
156 | CCS(=O)(=O)C1c2ccccc2CC1NC(=O)[C@@H](OC)c1ccccc1 (stereo in doubt) [Example 150, (2S)—N-(trans)-(1-ethanesulfonyl-2,3-dihydro-1H-inden-2-yl)-2-methoxy-2-phenylacetamide]
139 | CCC(C(=O)N[C@H]1Cc2ccccc2[C@@H]1N)c1ccc(F)cc1F (stereo partly drawn) [Example 14, N-[(1S,2S)-1-amino-2,3-dihydro-1H-inden-2-yl]-2-(2,4-difluorophenyl)butanamide hydrochloride]
126 | CC[C@H](C(=O)N[C@@H]1Cc2ccccc2[C@H]1N)c1ccc(F)cc1 [Example 53, (2S)—N-[(1R,2R)-1-amino-2,3-dihydro-1H-inden-2-yl]-2-(4-fluorophenyl)butanamide]
119 | C[C@H](C(=O)N[C@H]1Cc2ccccc2[C@@H]1N)c1ccccc1 [Example 11, (2S)—N-[(1S,2S)-1-amino-2,3-dihydro-1H-inden-2-yl]-2-phenylpropanamide hydrochloride]
104 | CC(C)C(C(=O)N[C@H]1Cc2ccccc2[C@@H]1N)c1ccc(Cl)cc1 (stereo partly drawn) [Example 20, N-[(1S,2S)-1-amino-2,3-dihydro-1H-inden-2-yl]-2-(4-chlorophenyl)-3-methylbutanamide hydrochloride]
95 | C[C@H](C(=O)N[C@H]1Cc2ccccc2[C@@H]1N)c1ccc(F)cc1F [Example 34, (2S)—N-[(1S,2S)-1-amino-2,3-dihydro-1H-inden-2-yl]-2-(2,4-difluorophenyl)propanamide]
23 | C[C@H](C(=O)N[C@H]1Cc2ccccc2[C@@H]1NCC1CCOCC1)c1ccc(F)cc1F [Example 40, (2S)-2-(2,4-difluorophenyl)-N-[(1S,2S)-1-{[(oxan-4-yl)methyl]amino}-2,3-dihydro-1H-inden-2-yl]propanamide]
18 | C[C@H](C(=O)N[C@H]1Cc2ccccc2[C@@H]1NC(=O)OC(C)(C)C)c1ccc(F)cc1F [Example 23, tert-butyl N-[(1S,2S)-2-[(2S)-2-(2,4-difluorophenyl)propanamido]-2,3-dihydro-1H-inden-1-yl]carbamate]
13 | CC[C@H](C(=O)N[C@H]1Cc2ccccc2[C@@H]1NC(=O)OC(C)(C)C)c1ccc(F)cc1 [Example 42, tert-butyl N-[(1S,2S)-2-[(2S)-2-(4-fluorophenyl)butanamido]-2,3-dihydro-1H-inden-1-yl]carbamate]
